# Source: ChEMBL document CHEMBL1136658, “Design and synthesis of potent, non-peptide inhibitors of HCV NS3 protease” (Bioorg Med Chem Lett, 2003)
# Peptide text beside a SMILES is read from it. * marks the point of attachment. X1 = C=CC[C@H](N*)B1OC2CC3CC(C3(C)C)[C@@]2(C)O1
# Target: T1, NS3 (Hepatitis C virus, UniProt A3EZJ3)
# Assay: Inhibitory concentration against HCV NS3 protease was determined
# Parameters: species or system Hepacivirus hominis
# T1 sequence (A3EZJ3 whole entry): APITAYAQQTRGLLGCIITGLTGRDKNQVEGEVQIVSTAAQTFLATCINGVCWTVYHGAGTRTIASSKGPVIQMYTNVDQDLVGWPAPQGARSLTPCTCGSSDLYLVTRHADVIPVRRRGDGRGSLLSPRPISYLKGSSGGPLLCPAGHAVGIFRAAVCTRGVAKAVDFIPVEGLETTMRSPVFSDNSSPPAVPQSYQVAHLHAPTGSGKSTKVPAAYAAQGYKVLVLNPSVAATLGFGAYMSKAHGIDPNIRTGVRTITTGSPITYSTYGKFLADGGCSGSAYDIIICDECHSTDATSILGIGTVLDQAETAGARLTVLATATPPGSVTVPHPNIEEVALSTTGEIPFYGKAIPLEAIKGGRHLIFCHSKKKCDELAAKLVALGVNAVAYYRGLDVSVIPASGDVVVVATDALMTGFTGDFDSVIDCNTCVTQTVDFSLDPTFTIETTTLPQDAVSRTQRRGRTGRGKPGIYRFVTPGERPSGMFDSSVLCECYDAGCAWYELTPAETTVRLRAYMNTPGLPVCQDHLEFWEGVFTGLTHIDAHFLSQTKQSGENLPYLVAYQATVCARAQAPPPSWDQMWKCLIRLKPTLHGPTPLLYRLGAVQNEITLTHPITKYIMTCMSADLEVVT
row,SMILES,Ki
1,C=CC[C@H](NC(=O)[C@@H]1CCCN1C(=O)[C@@H](NC(=O)[C@@H](NC(=O)[C@H](CCC(=O)O)NC(=O)[C@H](CC(=O)O)NC(C)=O)C(C)C)C(C)C)B1OC2CC3CC(C3(C)C)[C@@]2(C)O1 (stereo not given in full) (Ac-DEVVP-X1),4 nM

# Target: T1, NS3
# Assay: Inhibitory concentration against HCV NS3 protease.
# Parameters: species or system Hepacivirus hominis
row,SMILES,IC50
1,C=CC[C@H](NC(=O)[C@@H]1C[C@@H](Cc2ccc(C)cc2)c2c(Cl)nc(NCc3cccc(C(F)(F)F)c3)c(=O)n21)B1OC2CC3CC(C3(C)C)[C@@]2(C)O1 (stereo not given in full),60 nM
2,C=CC[C@H](NC(=O)[C@@H]1C[C@@H](Cc2ccccc2)c2c(Cl)nc(NCc3cccc(C(F)(F)F)c3)c(=O)n21)B1OC2CC3CC(C3(C)C)[C@@]2(C)O1 (stereo not given in full),260 nM
3,C=CC[C@H](NC(=O)[C@@H]1C[C@@H](CCCc2cccc3ccccc23)c2c(Cl)nc(NCCC)c(=O)n21)B1OC2CC3CC(C3(C)C)[C@@]2(C)O1 (stereo not given in full),180 nM
4,C=CC[C@H](NC(=O)[C@@H]1C[C@@H](CCCc2ccc3ccccc3c2)c2c(Cl)nc(NCc3ccccn3)c(=O)n21)B1OC2CC3CC(C3(C)C)[C@@]2(C)O1 (stereo not given in full),90 nM
5,C=CC[C@H](NC(=O)[C@@H]1C[C@@H](CCCc2cccc3ccccc23)c2c(Cl)nc(NCC(C)C)c(=O)n21)B1OC2CC3CC(C3(C)C)[C@@]2(C)O1 (stereo not given in full),170 nM
6,C=CC[C@H](NC(=O)[C@@H]1C[C@H](CCCc2ccccc2)c2c(Cl)nc(NCc3cccc(C(F)(F)F)c3)c(=O)n21)B1OC2CC3CC(C3(C)C)[C@@]2(C)O1 (stereo not given in full),2000 nM
7,C=CC[C@H](NC(=O)[C@@H]1C[C@@H](CCCc2ccc3ccccc3c2)c2c(Cl)nc(NCc3cccc(OC)c3)c(=O)n21)B1OC2CC3CC(C3(C)C)[C@@]2(C)O1 (stereo not given in full),60 nM
8,C=CC[C@H](NC(=O)[C@@H]1C[C@@H](CCCc2ccc3ccccc3c2)c2c(Cl)nc(NCc3cccc(C(F)(F)F)c3)c(=O)n21)B1OC2CC3CC(C3(C)C)[C@@]2(C)O1 (stereo not given in full),20 nM
9,C=CC[C@H](NC(=O)[C@@H]1C[C@@H](Cc2ccc(OC)cc2)c2c(Cl)nc(NCc3cccc(C(F)(F)F)c3)c(=O)n21)B1OC2CC3CC(C3(C)C)[C@@]2(C)O1 (stereo not given in full),50 nM
10,C=CC[C@H](NC(=O)[C@@H]1C[C@@H](Cc2cccc(C)c2)c2c(Cl)nc(NCc3cccc(C(F)(F)F)c3)c(=O)n21)B1OC2CC3CC(C3(C)C)[C@@]2(C)O1 (stereo not given in full),400 nM
11,C=CC[C@H](NC(=O)[C@@H]1C[C@@H](Cc2cccc(OC)c2)c2c(Cl)nc(NCc3cccc(C(F)(F)F)c3)c(=O)n21)B1OC2CC3CC(C3(C)C)[C@@]2(C)O1 (stereo not given in full),260 nM
12,C=CC[C@H](NC(=O)[C@@H]1C[C@@H](CCCc2ccc3ccccc3c2)c2c(Cl)nc(N)c(=O)n21)B1OC2CC3CC(C3(C)C)[C@@]2(C)O1 (stereo not given in full),190 nM
13,C=CC[C@H](NC(=O)[C@@H]1C[C@@H](CCCc2cccc3ccccc23)c2c(Cl)nc(NCC)c(=O)n21)B1OC2CC3CC(C3(C)C)[C@@]2(C)O1 (stereo not given in full),230 nM
14,C=CC[C@H](NC(=O)[C@@H]1C[C@@H](Cc2ccc(-c3ccccc3)cc2)c2c(Cl)nc(NCc3cccc(C(F)(F)F)c3)c(=O)n21)B1OC2CC3CC(C3(C)C)[C@@]2(C)O1 (stereo not given in full),60 nM
15,C=CC[C@H](NC(=O)[C@@H]1C[C@@H](CCCc2ccc3ccccc3c2)c2c(Cl)nc(NCCCC)c(=O)n21)B1OC2CC3CC(C3(C)C)[C@@]2(C)O1 (stereo not given in full),160 nM
16,C=CC[C@H](NC(=O)[C@@H]1C[C@@H](CCCc2ccc3ccccc3c2)c2c(Cl)nc(NCC3CCCCC3)c(=O)n21)B1OC2CC3CC(C3(C)C)[C@@]2(C)O1 (stereo not given in full),200 nM
17,C=CC[C@H](NC(=O)[C@@H]1C[C@@H](CCCc2cccc3ccccc23)c2c(Cl)nc(NCc3ccc(O)c(O)c3)c(=O)n21)B1OC2CC3CC(C3(C)C)[C@@]2(C)O1 (stereo not given in full),110 nM
18,C=CC[C@H](NC(=O)[C@@H]1CCc2c(Cl)nc(NCc3cccc(C(F)(F)F)c3)c(=O)n21)B1OC2CC3CC(C3(C)C)[C@@]2(C)O1 (stereo not given in full),4600 nM
19,C=CC[C@H](NC(=O)[C@@H]1C[C@@H](CCCc2ccc3ccccc3c2)c2c(Cl)nc(NCc3ccccc3)c(=O)n21)B1OC2CC3CC(C3(C)C)[C@@]2(C)O1 (stereo not given in full),240 nM
20,C=CC[C@H](NC(=O)[C@@H]1C[C@@H](CCCc2cccc3ccccc23)c2c(Cl)nc(NCc3cccc(F)c3)c(=O)n21)B1OC2CC3CC(C3(C)C)[C@@]2(C)O1 (stereo not given in full),60 nM
21,C=CC[C@H](NC(=O)[C@@H]1C[C@@H](CCCc2ccc3ccccc3c2)c2c(Cl)nc(NC)c(=O)n21)B1OC2CC3CC(C3(C)C)[C@@]2(C)O1 (stereo not given in full),320 nM
22,C=CC[C@H](NC(=O)[C@@H]1C[C@@H](CCCc2ccccc2)c2c(Cl)nc(NCc3cccc(C(F)(F)F)c3)c(=O)n21)B1OC2CC3CC(C3(C)C)[C@@]2(C)O1 (stereo not given in full),60 nM
23,C=CC[C@H](NC(=O)[C@@H]1C[C@H](CCCc2ccc3ccccc3c2)c2c(Cl)nc(NCc3cccc(C(F)(F)F)c3)c(=O)n21)B1OC2CC3CC(C3(C)C)[C@@]2(C)O1 (stereo not given in full),510 nM
24,CC[C@H](NC(=O)[C@@H]1C[C@@H](CCCc2ccc3ccccc3c2)c2c(Cl)nc(NCc3cccc(C(F)(F)F)c3)c(=O)n21)B1OC2CC3CC(C3(C)C)[C@@]2(C)O1 (stereo not given in full),20 nM
